Measurements: patent US12576085B2, “Combination comprising an ATP analog and an adenosine receptor antagonist or a nucleobase/nucleoside analog for the treatment of cancer” (priority 2010, dated 2026)

What was measured:
[1] = cited from earlier work
T84 cells = assay: Short-circuit current (ISC, Cl- secretion) in T84 cells in Ussing chambers; type: cell-based, human; conditions: for effect of antagonist on currents induced by imatinib and adenosine: 10 μM antagonist after 100 μM imatinib and 1 μM adenosine; for increase in ISC on basolateral addition of the compound alone: NBMPR 10 μM, imatinib 100 μM, no extracellular adenosine added; for increase in ISC on basolateral addition of the compound alone / currents on apical addition of the TKI: erlotinib 20 μM, gefitinib 100 μM
Procedure: T84 cells were routinely grown in DMEM/F12 (1:1) cell culture media with 10% FBS, 1 mM sodium pyruvate, 1× penicillin/streptomycin and 10 mM HEPES. For experiments described in this report, T84 cells were grown on 12 mm snapwell inserts for 6-8 days with media changes every 2-3 days. […] Compounds were added in small aliquots to the basolateral or apical chamber and the secretory response was measured as an increase in short-circuit current (ISC) due to Cl^− secretion and was monitored as a function of time.

[2] = patients treated with erlotinib; cited from earlier work
[3] = system: adenine nucleobase transporters; conditions: read-out: IC50 for inhibition of adenine transport; 1 μM [3H]adenine, hRPTCs, sodium buffer pH 7.4, 2 minute incubation
Procedure: Human renal proximal tubule cells (hRPTCs) were seeded in 12-well plates at densities of 10^5 cells/well and grown for 7 days with medium changes every 3-4 days. On the day of experiments, growth medium was aspirated and cells were washed twice with 1.5 ml of 20 mM Tris-HCl buffer (pH 7.4) containing 150 mM NaCl, 1.2 mM MgCl2 and 1 mM CaCl2 (hereafter referred to as sodium buffer). […] At the end of 2 minute incubations, cells were washed twice with sodium buffer and intracellular accumulation of [^3H]adenine was determined by solubilizing cells with 5% Triton-X-100 and subsequent determination of radioactivity in a scintillation counter. Data are presented as percent of values obtained in the absence of a competitor (controls). Resulting concentration-effect curves were analyzed by nonlinear regression analysis using Graph Pad Prism software version 4.0 (Graph Pad Software Inc., San Diego, CA) to obtain IC50 values for the compounds.

In the case of `O=c1[nH]cc(F)c(=O)[nH]1` [5-FU, 5-fluorouracil], the half-life [1] is given as 20 min.

In the case of `Cn1c(=O)c2[nH]c(-c3ccccc3)nc2n(C)c1=O` [8-PT, 8-phenyltheophylline], the “effect of antagonist on ISC induced by adenosine then NBMPR” value (T84 cells; 10 μM 8-PT after 1 μM adenosine and 10 μM NBMPR, basolateral, FIG. 4) is reported as “ISC returned to baseline levels”, the “effect of antagonist on currents induced by erlotinib and adenosine” value (T84 cells; 10 μM 8-PT after 20 μM erlotinib and 1 μM adenosine, basolateral, FIG. 8) is reported as “abolished” and the “effect of antagonist on currents induced by gefitinib and adenosine” value (T84 cells; 10 μM 8-PT after 100 μM gefitinib and 1 μM adenosine, basolateral, FIG. 9) is reported as “abolished”. The “effect of antagonist on currents induced by apical erlotinib or gefitinib” value (T84 cells; 10 μM 8-PT apical, FIG. 12) was “abolished”, the “induction of ISC by adenosine after pretreatment with antagonist” value (T84 cells; 10 μM 8-PT basolateral prior to 1 μM adenosine basolateral, FIG. 7 panel C) was “no induction of ISC” and the “effect of antagonist on currents induced by imatinib and adenosine” value (T84 cells; basolateral, FIG. 10) was “abolished”. The “effect of antagonist on ISC induced by NBMPR then adenosine” value (T84 cells; 8-PT after 10 μM NBMPR and 1 μM adenosine, basolateral, FIG. 6) was “reversed the increase in ISC to baseline activity”.

With `O=[N+]([O-])c1ccc(CSc2ncnc3c2ncn3[C@@H]2O[C@H](CO)[C@@H](O)[C@H]2O)cc1` [NBMPR, nitrobenzylmercaptopurine riboside] the “ISC on addition of NBMPR after adenosine” value (T84 cells; 10 μM NBMPR after 1 μM adenosine, basolateral, FIG. 4) was “much higher ISC”, the “induction of currents by NBMPR (retest)” value (T84 cells; 20 μM NBMPR basolateral, FIG. 7 panel B) was “Induction of currents” and the “increase in ISC on basolateral addition of the compound alone” value (“increase in ISC on basolateral addition” for short) (T84 cells; basolateral) was “steady increase in ISC with time”.

With `Nc1ncnc2c1ncn2[C@@H]1O[C@H](CO)[C@@H](O)[C@H]1O` [adenosine] the “ISC on addition of adenosine after NBMPR” value (T84 cells; 1 μM adenosine after 10 μM NBMPR, basolateral, FIG. 6) was “substantial increase in ISC”, the “currents on addition of adenosine after erlotinib” value (T84 cells; 1 μM adenosine after 20 μM erlotinib, basolateral, FIG. 8) was “substantial induction of currents” and the “currents on addition of adenosine after gefitinib” value (T84 cells; 1 μM adenosine after 100 μM gefitinib, basolateral, FIG. 9) was “substantial induction of currents”. The “currents on addition of adenosine after imatinib” value (T84 cells; 1 μM adenosine after 100 μM imatinib, basolateral, FIG. 10) was “substantial induction of currents”, the “currents on addition of adenosine to apical and both sides” value (T84 cells; 1 μM adenosine, apical or both sides versus basolateral, FIG. 11) was “much higher currents than on the basolateral side alone” and the “ISC with increasing concentrations of adenosine” value (T84 cells; adenosine basolateral in 1 μM increments, FIG. 7 panel A) was “ISC increased”.

In the case of `C#Cc1cccc(Nc2ncnc3cc(OCCOC)c(OCCOC)cc23)c1` [erlotinib], the “patients who develop diarrhea” value [2] is listed as 30%, the “currents on apical addition of the TKI” value (T84 cells; FIG. 12) is listed as “slow increase in currents” and the “increase in ISC on basolateral addition” value (T84 cells; basolateral) is listed as “increase in ISC similar to that of NBMPR”.

With `COc1cc2ncnc(Nc3ccc(F)c(Cl)c3)c2cc1OCCCN1CCOCC1` [gefitinib] the “currents on apical addition of the TKI” value (T84 cells; FIG. 12) was “slow increase in currents” and the “increase in ISC on basolateral addition” value (T84 cells; basolateral) was “slow but steady increase in ISC similar to that of NBMPR”.

`CCN(CC)CCNC(=O)c1c(C)[nH]c(/C=C2\C(=O)Nc3ccc(F)cc32)c1C` [sunitinib] gave an IC50 [3] of 50 µM.

For `Cn1c(=O)c2[nH]cnc2n(C)c1=O` [theophylline], the “effect of antagonist on currents induced by imatinib and adenosine” value (T84 cells; basolateral, FIG. 10) was “abolished” and the “effect of antagonist on adenosine induced increase in ISC” value (T84 cells; 10 μM antagonist, adenosine alone, FIG. 5) was “blocked”.

For `COc1cc2c(Nc3ccc(Br)cc3F)ncnc2cc1OCC1CCN(C)CC1` [vandetanib], the IC50 [3] was ≥ 100 µM.
